Laboratory results as given in patent US9469659B2, “Compositions and methods for improving glucose uptake” (Board of Supervisors of Louisiana State University and …, priority 2012, dated 2016).

Experiments:
[1] = test system: 3T3-L1 pre adipocytes; assay: Cell toxicity of compounds at various doses; assay type: cell-based
Procedure: For the following screens, compounds 1-5 were dissolved in DMSO. 3T3-L1 pre adipocytes were first exposed to different concentrations (5 μM, 10 μM, 20 μM, 50 μM and 100 μM) of the compounds to test for toxicity compared with DMSO control exposure. Exposure to other concentrations was followed until Day 5. Compound 2 was the most toxic at 20 μM on Day 5.

[2] = test system: 3T3-L1 cells; assay: Glucose uptake under basal and insulin stimulated conditions (FIG. 2); assay type: cell-based; conditions: 24 hours exposure
Procedure: Next, glucose uptake by 3T3-L1 cells exposed to compounds 1-5 was determined at 5 μM concentration. Cells were exposed to compounds 1-5 for 24 hours and exposure to DMSO was used as the control group. 2-Deoxy glucose (2-DG) uptake was determined using the analog compounds without serum starving the cells prior to determining glucose uptake. As indicated in FIG. 1 glucose uptake in 3T3-L1 pre-adipocytes was determined by exposing cells to compounds 1-5 for 24 hours without serum starvation. All compounds show significant increase (p<0.05) in glucose uptake under basal conditions compared with the DMSO treated control cells. To confirm these observations glucose uptake was examined under basal and insulin stimulated conditions with cells exposed to compounds 1-5 for 24 hours.

[3] = 5 μM, Day 1, 3T3-L1 pre adipocytes
[4] = 5 μM, Day 2, 3T3-L1 pre adipocytes
[5] = 5 μM, Day 3, 3T3-L1 pre adipocytes
[6] = 5 μM, Day 4, 3T3-L1 pre adipocytes
[7] = 5 μM, Day 5, 3T3-L1 pre adipocytes
[8] = 10 μM, Day 1, 3T3-L1 pre adipocytes
[9] = 10 μM, Day 2, 3T3-L1 pre adipocytes
[10] = 10 μM, Day 3, 3T3-L1 pre adipocytes
[11] = 10 μM, Day 4, 3T3-L1 pre adipocytes
[12] = 10 μM, Day 5, 3T3-L1 pre adipocytes
[13] = 20 μM, Day 1, 3T3-L1 pre adipocytes
[14] = 20 μM, Day 2, 3T3-L1 pre adipocytes
[15] = 20 μM, Day 3, 3T3-L1 pre adipocytes
[16] = 20 μM, Day 4, 3T3-L1 pre adipocytes
[17] = 20 μM, Day 5, 3T3-L1 pre adipocytes
[18] = 50 μM, Day 1, 3T3-L1 pre adipocytes
[19] = 50 μM, Day 2, 3T3-L1 pre adipocytes
[20] = 100 μM, Day 1, 3T3-L1 pre adipocytes
[21] = 100 μM, Day 2, 3T3-L1 pre adipocytes

Structure (SMILES) | Cell toxicity [1, 3] [%] | Cell toxicity [1, 4] | Cell toxicity [1, 5] | Cell toxicity [1, 6] | Cell toxicity [1, 7] | Cell toxicity [1, 8] | Cell toxicity [1, 9] | Cell toxicity [1, 10] | Cell toxicity [1, 11] | Cell toxicity [1, 12] | Cell toxicity [1, 13] | Cell toxicity [1, 14] | Cell toxicity [1, 15] | Cell toxicity [1, 16] | Cell toxicity [1, 17] | Cell toxicity [1, 18] | Cell toxicity [1, 19] | Cell toxicity [1, 20] | Cell toxicity [1, 21] | Glucose uptake under basal and insulin stimulated conditions [2] | also measured
CC1(C)OB(c2ccc(NC(C#N)c3cc(-c4ccc(F)cc4)on3)cc2)OC1(C)C (stereo not drawn) [Compound 1] | 0 | 0-5% | 0-5% | 0-5% | ≧5% | 5-10% | 5-10% | 5-10% | 5-10% | 5-10% | 5-10% | ≧10% | ≧10% | 10-15% | 10-15% | 30-40% | 90-95% | >90% | 95-100% | – | –
CC1(C)OB(c2ccc(NC(C#N)c3cc(-c4ccccc4)on3)cc2)OC1(C)C (stereo not drawn) [Compound 2] | 0 | 0-5% | 0-5% | 10-20% | 10-20% | 5-10% | >10% | ≧10% | 30-40% | ≧40% | >10% | 20-30% | 40-50% | 60-70% | 70-80% | 30-40% | 95-100% | >90% | 95-100% | – | Toxicity (in words, ranking among compounds) [1, 17]: most toxic
Cc1cc(C(C#N)Nc2ccc(B3OC(C)(C)C(C)(C)O3)cc2)no1 (stereo not drawn) [Compound 3] | 0 | 0-5% | 0-5% | 0-5% | 0-5% | 0-5% | >5% | ≧10% | ≧10% | ≧10% | 5-10% | 15-20% | >20% | 20-30% | ≧30% | 15-20% | 90-95% | 60-70% | 95-100% | most significant increase | –
N#CC(Nc1ccc([B-](F)(F)F)cc1)c1cc(-c2ccc(F)cc2)on1 (stereo not drawn) [Compound 4] | 0 | 0-5% | 0-5% | 0-5% | 0-5% | 0-5% | >5% | ≧10% | ≧10% | ≧10% | 5-10% | 10-15% | ≧15% | ≧15% | ≧15% | 30-40% | 90-95% | >90% | 95-100% | most significant increase | –
N#CC(Nc1ccc([B-](F)(F)F)cc1)c1ccco1 (stereo not drawn) [Compound 5] | 0 | 0-5% | 0-5% | 0-5% | 0-5% | 0-5% | >5% | ≧10% | ≧10% | ≧10% | 5-10% | 10-15% | 10-15% | 10-15% | 10-15% | >15% | 90-95% | >90% | 95-100% | most significant increase | –
